# Marks after values point to notes of the source that are not given here.
# Assays:
# [1] = CCK-8 cytotoxicity assay in HepAD38 cells; type: cell-based, Human; conditions: human, 6 days
# HBV encapsidated pgRNA = experiment: Encapsidated pgRNA and total HBV RNAs (Northern blot); type: cell-based; conditions: HepAD38 cells, BAY 41-4109 2 μM; for Effect on HBV encapsidated pgRNA: C-18, C-39, C-19 5 μM, ETV 25 nM
# HBV [2] = experiment: Secreted HBV DNA in HepAD38 culture supernatant (RT-qPCR); type: cell-based; conditions: for EC50: Hepatitis B virus, read-out: EC50 (secreted HBV DNA)
# HBV capsid = HBV capsid (Hepatitis B virus genotype D subtype ayw, UniProt P03146); experiment: Intracellular HBV capsid formation; type: cell-based; conditions: HepAD38 or HepG2-HBV1.3 cells, compounds 10 μM, ETV 25 nM, BAY 41-4109 2 μM, 6 days
# Sequence of HBV capsid (P03146 whole entry): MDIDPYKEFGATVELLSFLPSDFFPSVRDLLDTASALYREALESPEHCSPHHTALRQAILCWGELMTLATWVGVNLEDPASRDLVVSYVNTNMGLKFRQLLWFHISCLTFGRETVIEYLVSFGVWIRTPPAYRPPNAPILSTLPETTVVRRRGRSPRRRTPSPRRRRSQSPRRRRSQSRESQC
# HepAD38 cells = experiment: CCK-8 cytotoxicity assay in HepAD38 cells; type: cell-based, Human
# [3] = tested on: ETV-resistant mutant (rtL180M/S202G/M204V) HBV; experiment: Drug susceptibility assay, HepG2 transfected with ETV-resistant mutant; type: cell-based; conditions: Hepatitis B virus, HepG2, 144 h, read-out: viral replication EC50
# HBV core DNA = experiment: Intracellular HBV core DNA (qPCR) and replicative intermediates (Southern blot); type: cell-based; conditions: 6 days, qPCR
# HBV [4] = experiment: HepG2-NTCP de novo HBV infection model (viral markers, cccDNA Taq-Man qPCR); type: cell-based; conditions: HepG2-NTCP cells, 5 μM
# HBc = HBc (Hepatitis B virus genotype D subtype ayw, UniProt P03146); experiment: Immunofluorescence of HBV core protein in HepAD38 cells; type: cell-based; conditions: 3 days, BAY 41-4109 2 μM
# Sequence of HBc (P03146 whole entry): as above
# HBV 3.5 kb RNA = experiment: Intracellular HBV 3.5 kb RNA (RT-qPCR); type: cell-based; conditions: 6 days
# HBV [5] = experiment: Secreted HBV DNA in HepG2-HBV1.3 culture supernatant (RT-qPCR); type: cell-based; conditions: Hepatitis B virus, 144 h; HepG2-HBV1.3 cells, 6 days
# HBeAg = experiment: Secreted HBeAg ELISA; type: cell-based, HBV; conditions: 6 days
# HBsAg = experiment: Secreted HBsAg ELISA; type: cell-based, HBV; conditions: 6 days, ETV 25 nM, BAY 41-4109 2 μM
# [6] = CCK-8 cytotoxicity assay in HepG2-HBV1.3 (HepG2) cells; type: cell-based; conditions: human
# Cp149 protein = Cp149 protein (Hepatitis B virus genotype D subtype ayw, UniProt P03146); experiment: Cp149 capsid assembly in vitro, transmission electron microscopy; type: biochemical, HBV; conditions: Cp149 5 μM dimer, 300 mM NaCl, 150 mM HEPES pH 7.5; BAY 41-4109 5 μM 3 days, C-39 20 μM 3 and 7 days
# Sequence of Cp149 protein (P03146 1-149): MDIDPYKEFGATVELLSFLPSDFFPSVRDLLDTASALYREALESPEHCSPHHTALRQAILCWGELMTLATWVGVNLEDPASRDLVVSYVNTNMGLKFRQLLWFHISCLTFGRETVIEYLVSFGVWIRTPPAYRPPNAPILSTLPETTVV
# wild-type HBV = experiment: Drug susceptibility assay, HepG2 transfected with HBV1.1-WT; type: cell-based; conditions: Hepatitis B virus, 144 h; wild-type HBV in HepG2, secreted HBV DNA, 6 days; read-out: viral replication EC50
smiles,measurement,setting,value
O=C(Nc1ccc(F)c(F)c1)c1cc(S(=O)(=O)N(CCc2ccccc2)Cc2ccccc2)ccc1F [Compound C-19],CC50 at 6 days,[1],75.3 ± 5.2 µM
same,Effect on HBV encapsidated pgRNA,HBV encapsidated pgRNA,slight effects
same,SI (CC50/EC50),HBV [2]; HepAD38 cells,194.1
same,EC50,"HBV [2]; 144 h, HepAD38 cells, 6 days",0.39 ± 0.13 µM
same,Effect on intracellular HBV capsid formation at single concentration,HBV capsid,did not affect the capsid formation
O=C(CSc1nnc2ccc(C(=O)Nc3cccc(F)c3)cn12)Nc1ccc(F)c(F)c1 [Compound C-25],CC50 at 6 days,[1],33.2 ± 1.9 µM
same,SI (CC50/EC50),HBV [2]; HepAD38 cells,114.6 ^a
same,EC50,"HBV [2]; 144 h, HepAD38 cells, 6 days",0.29 ± 0.02 µM
CC1(C(=O)NCc2ccc(F)cc2)CCCN(C(=O)Nc2ccc(F)c(Cl)c2)C1 (stereo not drawn) [Compound C-27],CC50 at 6 days,[1],81.5 ± 5.8 µM
same,SI (CC50/EC50),HBV [2]; HepAD38 cells,72.8 ^a
same,EC50,"HBV [2]; 144 h, HepAD38 cells, 6 days",1.12 ± 0.05 µM
Cc1cc2c(cc1S(=O)(=O)N1CCCC(C(=O)Nc3ccc(F)c(Cl)c3)C1)OCC(=O)N2 (stereo not drawn) [Compound C-29],CC50 at 6 days,[1],18.2 ± 2.2 µM
same,Cytotoxicity in words,HepAD38 cells,medium cytotoxicity
same,SI (CC50/EC50),HBV [2]; HepAD38 cells,14.1 ^a
same,EC50,"HBV [2]; 144 h, HepAD38 cells, 6 days",1.29 ± 0.01 µM
CC(=O)N1c2ccc(S(=O)(=O)N3CCCC(C(=O)Nc4ccc(F)c(Cl)c4)C3)cc2CC1C (stereo not drawn) [Compound C-31],CC50 at 6 days,[1],25 ± 3.3 µM
same,SI (CC50/EC50),HBV [2]; HepAD38 cells,96.0 ^a
same,EC50,"HBV [2]; 144 h, HepAD38 cells, 6 days",0.26 ± 0.03 µM
CC1Oc2ccc(S(=O)(=O)N3CCCC(C(=O)Nc4ccc(F)c(Cl)c4)C3)cc2NC1=O (stereo not drawn) [Compound C-35],CC50 at 6 days,[1],9.8 ± 1 µM
same,Cytotoxicity in words,HepAD38 cells,medium cytotoxicity
same,SI (CC50/EC50),HBV [2]; HepAD38 cells,23.9 ^a
same,EC50,"HBV [2]; 144 h, HepAD38 cells, 6 days",0.41 ± 0.01 µM
CCOC(=O)c1c(C)[nH]c(C)c1S(=O)(=O)N1CCCC(C(=O)Nc2ccc(F)c(Cl)c2)C1 (stereo not drawn) [Compound C-37],CC50 at 6 days,[1],11 ± 0.7 µM
same,SI (CC50/EC50),HBV [2]; HepAD38 cells,31.3 ^a
same,EC50,"HBV [2]; 144 h, HepAD38 cells, 6 days",0.35 ± 0.05 µM
CCOC(=O)c1c(S(=O)(=O)N2CCCC(C(=O)Nc3ccc(F)c(Cl)c3)C2)c(C)n(C)c1C (stereo not drawn) [Compound C-39],EC50,[3],0.084 µM
same,Effect on intracellular HBV core DNA,HBV core DNA; HepAD38 cells,markedly reduced
same,Effect on intracellular HBV core DNA,HBV core DNA; HepG2-HBV1.3 cells,markedly reduced
same,"Effect on cccDNA formation, treatment together with viral inoculum (day 0)",HBV [4],prevented the formation of cccDNA during the early postentry step
same,"Effect on pre-established cccDNA, treatment 4 days after infection (day 4)",HBV [4],minor effect
same,CC50 at 6 days,[1],> 100 µM
same,Cytotoxicity in words,HepAD38 cells,no obvious toxicity
same,Effect on intracellular total HBV RNAs,"HBV encapsidated pgRNA; C-18, C-39 5 μM",slight decrease
same,Effect on HBV encapsidated pgRNA,HBV encapsidated pgRNA,markedly downregulated
same,HBc localisation / aggregation,HBc; C-18 and C-39 5 μM,induced punctate HBc aggregation within the nucleus
same,HBc level by immunofluorescence,HBc; C-39 5 μM,significantly decreased the HBc level
same,Effect on intracellular HBV 3.5 kb RNA,HBV 3.5 kb RNA; HepAD38 cells,markedly reduced
same,Effect on intracellular HBV 3.5 kb RNA,HBV 3.5 kb RNA; HepG2-HBV1.3 cells,markedly reduced
same,EC50,HBV [5],0.075 ± 0.016 µM
same,HBV DNA secretion and intracellular HBV DNA in combination with ETV vs ETV alone,"HBV [2]; HepAD38 cells, 5 nM ETV together with C-39 0-10 μM",further inhibition
same,EC50,"HBV [2]; 144 h, HepAD38 cells, 6 days",0.056 ± 0.013 µM
same,Effect on secreted HBeAg,HBeAg; HepAD38 cells,markedly reduced
same,Effect on secreted HBeAg,HBeAg; HepG2-HBV1.3 cells,markedly reduced
same,Effect on secreted HBsAg,HBsAg; HepAD38 cells,no impact on HBsAg production
same,Effect on secreted HBsAg,HBsAg; HepG2-HBV1.3 cells,no impact on HBsAg production
same,Effect on intracellular HBV capsid formation at single concentration,HBV capsid,dramatically inhibited capsid formation
same,CC50 at 6 days,[6],> 100 µM
same,Morphology of assembled Cp149 particles (TEM),Cp149 protein,effectively accelerated the formation of capsid-like particles with time
same,EC50,wild-type HBV,0.078 µM
O=C(Nc1ccc(F)c(Cl)c1)C1CCCN(S(=O)(=O)c2c[nH]c(C(=O)N3CCCC3)c2)C1 (stereo not drawn) [Compound C-40],CC50 at 6 days,[1],12.6 ± 0.7 µM
same,Cytotoxicity in words,HepAD38 cells,medium cytotoxicity
same,SI (CC50/EC50),HBV [2]; HepAD38 cells,32.3 ^a
same,EC50,"HBV [2]; 144 h, HepAD38 cells, 6 days",0.39 ± 0.01 µM
Cc1nc(-c2csc(S(=O)(=O)N3CCCC(C(=O)Nc4ccc(F)c(Cl)c4)C3)c2)no1 (stereo not drawn) [Compound C-41],CC50 at 6 days,[1],95.6 ± 15.7 µM
same,SI (CC50/EC50),HBV [2]; HepAD38 cells,1542 ^a
same,EC50,"HBV [2]; 144 h, HepAD38 cells, 6 days",0.062 ± 0.013 µM
"C=C1[C@H](CO)[C@@H](O)C[C@@H]1n1cnc2c(=O)[nH]c(N)nc21 [ETV, Entecavir, reference compound]",EC50,[3],0.0061 µM
same,Effect on HBV encapsidated pgRNA,HBV encapsidated pgRNA,upregulated
same,EC50,"HBV [2]; HePAD38, 144 h",0.003 ± 0.001 µM
same,Effect on secreted HBsAg,HBsAg; HepAD38 cells,no impact on HBsAg production
same,Effect on secreted HBsAg,HBsAg; HepG2-HBV1.3 cells,no impact on HBsAg production
same,Effect on intracellular HBV capsid formation at single concentration,HBV capsid,much less or no inhibition effects
same,EC50,wild-type HBV,0.0032 µM

# — publication PMC8876525 (Viruses, 2022)
